Experiments:
[1] = test system: mice; conditions: not significant when compared with ketamine; cited from earlier work
[2] = target: NMDA-B (NR1/2B) receptors (Homo sapiens, UniProt Q05586+Q13224); test: Antagonist activity on NMDA receptors (current blockade and recovery)
[3] = test system: GABAa receptors; test: Agonist activity on GABAa receptors, subtype not separated in the text; assay type: cell-based; conditions: for potentiation of GABAA current / response from GABAa receptors, in words: relative to ketamine, various concentrations
Method: (§1) The GABAa subtypes α6β2δ and α1β2γ2 receptors are expressed at high levels exclusively within mature cerebellar granule neurons.
(§2) The ketamine analogues were tested for agonist activities at GABAa receptors both in the presence and absence of GABA (FIGS. 13-16). […] Oxime 2 was prepared both as a mono-salt and di-salt.

[4] = target: NMDA-A (NR1/2A) receptors (Homo sapiens, UniProt Q05586+Q12879); test: Antagonist activity on NMDA receptors (current blockade and recovery)
[5] = target: NMDA-D (NR1/2D) receptors (Homo sapiens, UniProt O15399+Q05586); test: as above
Sequence of NMDA-D (NR1/2D) receptors (O15399 28-1336, other chains not shown): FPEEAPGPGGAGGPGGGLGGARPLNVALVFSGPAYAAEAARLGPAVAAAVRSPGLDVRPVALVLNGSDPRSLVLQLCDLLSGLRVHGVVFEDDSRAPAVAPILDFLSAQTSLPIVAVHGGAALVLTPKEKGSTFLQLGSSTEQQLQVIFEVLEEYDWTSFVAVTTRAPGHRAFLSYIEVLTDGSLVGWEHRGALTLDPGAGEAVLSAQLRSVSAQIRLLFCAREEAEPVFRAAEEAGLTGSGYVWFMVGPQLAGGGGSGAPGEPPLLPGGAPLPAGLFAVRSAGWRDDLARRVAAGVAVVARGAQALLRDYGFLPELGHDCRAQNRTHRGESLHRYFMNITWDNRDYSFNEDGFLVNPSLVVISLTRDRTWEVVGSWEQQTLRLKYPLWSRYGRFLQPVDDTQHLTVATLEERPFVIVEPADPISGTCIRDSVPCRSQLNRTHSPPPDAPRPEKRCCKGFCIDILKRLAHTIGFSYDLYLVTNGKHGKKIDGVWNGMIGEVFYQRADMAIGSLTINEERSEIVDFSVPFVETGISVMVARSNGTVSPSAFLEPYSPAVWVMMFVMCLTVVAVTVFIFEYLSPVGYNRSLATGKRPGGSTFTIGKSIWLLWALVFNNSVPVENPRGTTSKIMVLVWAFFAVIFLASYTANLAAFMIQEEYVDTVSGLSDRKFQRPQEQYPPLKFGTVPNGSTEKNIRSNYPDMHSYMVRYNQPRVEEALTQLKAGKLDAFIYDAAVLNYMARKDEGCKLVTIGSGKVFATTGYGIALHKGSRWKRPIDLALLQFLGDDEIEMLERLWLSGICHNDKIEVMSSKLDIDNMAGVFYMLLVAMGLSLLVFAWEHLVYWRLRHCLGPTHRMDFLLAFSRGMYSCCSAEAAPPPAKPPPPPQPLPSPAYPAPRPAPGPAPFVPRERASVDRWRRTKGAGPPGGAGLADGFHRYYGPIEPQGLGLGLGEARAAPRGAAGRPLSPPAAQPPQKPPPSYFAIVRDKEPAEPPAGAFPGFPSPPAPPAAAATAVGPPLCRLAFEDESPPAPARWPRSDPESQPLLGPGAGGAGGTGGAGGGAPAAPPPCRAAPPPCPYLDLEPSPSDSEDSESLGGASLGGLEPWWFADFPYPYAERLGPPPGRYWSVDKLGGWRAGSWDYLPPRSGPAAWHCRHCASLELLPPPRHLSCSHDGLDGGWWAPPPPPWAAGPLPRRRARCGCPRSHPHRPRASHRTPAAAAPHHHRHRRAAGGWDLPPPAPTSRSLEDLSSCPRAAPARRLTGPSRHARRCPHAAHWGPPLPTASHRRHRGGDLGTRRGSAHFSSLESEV

[6] = Lipophilicity relative to ketamine; assay type: physicochemical
[7] = test system: α6- and δ-containing GABAa receptors; conditions: within anesthetically relevant concentration; cited from earlier work
[8] = test system: NMDA receptors with NR2-A and NR2-B subunits; conditions: cited from earlier work
[9] = test system: NMDA receptors; test: NMDA receptor blockade and recovery, subtypes not separated in the text; assay type: cell-based; conditions: compared with ketamine
[10] = target: NMDA-NR1/2C receptors (Homo sapiens, UniProt Q05586+Q14957); test: Antagonist activity on NMDA receptors (current blockade and recovery); assay type: cell-based; conditions: concentrations 0.1 to 200 μM
[11] = test system: rats; test: Tail suspension model of depression in rats; assay type: in vivo; conditions: 5 mg/kg, tail suspension for 12 minutes
Method: Rats were dosed with ketamine oxime disalt and then tested in a model of depression. FIG. 24 illustrates an analysis of the antidepressant effects of ketamine and the oxime analogue at 5 mg/kg in rats undergoing tail suspension for 12 minutes. Note that immobility, giving up the struggle, is a sign of depression in this model. […] V is vehicle, A is ketamine, B is ketamine oxime analogue.

[12] = target: T1, α6β2δ GABAa receptors (Homo sapiens, UniProt O14764+P47870+Q16445); test: Agonist activity of ketamine analogues on GABAa receptors (potentiation of GABA current, oocyte expression system); assay type: cell-based
T1 construct: expressed in transfected cells
T1 sequence (Q16445 20-453): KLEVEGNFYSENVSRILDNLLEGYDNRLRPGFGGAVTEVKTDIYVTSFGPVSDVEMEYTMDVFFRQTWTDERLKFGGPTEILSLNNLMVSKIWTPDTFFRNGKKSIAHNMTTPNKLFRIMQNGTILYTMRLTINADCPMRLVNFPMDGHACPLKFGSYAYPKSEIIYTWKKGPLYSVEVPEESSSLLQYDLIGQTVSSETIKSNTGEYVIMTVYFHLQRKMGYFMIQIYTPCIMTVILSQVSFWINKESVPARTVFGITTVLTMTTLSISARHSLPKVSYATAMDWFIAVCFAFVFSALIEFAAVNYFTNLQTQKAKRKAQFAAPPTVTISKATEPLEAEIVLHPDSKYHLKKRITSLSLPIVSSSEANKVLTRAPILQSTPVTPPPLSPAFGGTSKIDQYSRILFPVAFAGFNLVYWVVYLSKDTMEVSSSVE
T1 sequence (P47870 25-512 limits assumed): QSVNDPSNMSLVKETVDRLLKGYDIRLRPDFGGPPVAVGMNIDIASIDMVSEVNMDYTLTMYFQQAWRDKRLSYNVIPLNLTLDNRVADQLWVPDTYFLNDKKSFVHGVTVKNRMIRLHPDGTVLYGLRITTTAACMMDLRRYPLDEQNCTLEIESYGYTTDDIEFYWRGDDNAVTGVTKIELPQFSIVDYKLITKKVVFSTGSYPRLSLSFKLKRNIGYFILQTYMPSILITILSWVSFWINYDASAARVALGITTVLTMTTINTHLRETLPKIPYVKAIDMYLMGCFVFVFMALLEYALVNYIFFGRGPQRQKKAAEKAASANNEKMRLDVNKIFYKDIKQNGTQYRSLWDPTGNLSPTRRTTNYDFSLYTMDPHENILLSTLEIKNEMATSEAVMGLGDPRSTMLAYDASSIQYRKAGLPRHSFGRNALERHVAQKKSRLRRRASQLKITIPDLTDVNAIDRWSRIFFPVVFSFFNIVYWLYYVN
T1 sequence (O14764 25-452): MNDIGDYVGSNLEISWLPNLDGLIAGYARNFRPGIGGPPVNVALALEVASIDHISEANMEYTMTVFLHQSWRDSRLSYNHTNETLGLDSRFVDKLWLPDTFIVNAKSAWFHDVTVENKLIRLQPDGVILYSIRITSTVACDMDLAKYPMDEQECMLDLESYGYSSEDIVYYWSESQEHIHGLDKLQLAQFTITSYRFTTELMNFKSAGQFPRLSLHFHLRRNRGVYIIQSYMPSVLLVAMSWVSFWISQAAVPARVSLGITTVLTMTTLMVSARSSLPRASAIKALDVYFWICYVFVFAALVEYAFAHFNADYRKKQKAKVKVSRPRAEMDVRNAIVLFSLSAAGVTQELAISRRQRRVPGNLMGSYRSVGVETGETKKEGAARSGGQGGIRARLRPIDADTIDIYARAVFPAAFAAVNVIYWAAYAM
Method: as §1, §2

[13] = target: T2, α1β2γ2 GABAa receptors (Homo sapiens, UniProt P14867+P18507+P47870); test: as above; assay type: cell-based; conditions: for potentiation of GABAa current, in words: 20 μM
T2 construct: expressed in transfected cells
T2 sequence (P14867 28-456): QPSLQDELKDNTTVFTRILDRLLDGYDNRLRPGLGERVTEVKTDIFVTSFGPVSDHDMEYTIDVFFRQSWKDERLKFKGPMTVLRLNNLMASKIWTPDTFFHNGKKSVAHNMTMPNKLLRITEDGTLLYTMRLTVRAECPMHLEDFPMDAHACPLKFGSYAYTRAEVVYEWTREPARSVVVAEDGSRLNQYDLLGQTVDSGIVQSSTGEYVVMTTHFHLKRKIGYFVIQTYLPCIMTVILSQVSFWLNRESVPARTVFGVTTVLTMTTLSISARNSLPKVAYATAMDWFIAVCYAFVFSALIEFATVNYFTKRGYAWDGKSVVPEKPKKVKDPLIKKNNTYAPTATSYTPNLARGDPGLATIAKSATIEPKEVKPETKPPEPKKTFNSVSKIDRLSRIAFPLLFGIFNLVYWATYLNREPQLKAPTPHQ
T2 sequence (P47870 25-512 limits assumed): as the sequence (P47870 25-512 limits assumed) above
T2 sequence (P18507 40-475): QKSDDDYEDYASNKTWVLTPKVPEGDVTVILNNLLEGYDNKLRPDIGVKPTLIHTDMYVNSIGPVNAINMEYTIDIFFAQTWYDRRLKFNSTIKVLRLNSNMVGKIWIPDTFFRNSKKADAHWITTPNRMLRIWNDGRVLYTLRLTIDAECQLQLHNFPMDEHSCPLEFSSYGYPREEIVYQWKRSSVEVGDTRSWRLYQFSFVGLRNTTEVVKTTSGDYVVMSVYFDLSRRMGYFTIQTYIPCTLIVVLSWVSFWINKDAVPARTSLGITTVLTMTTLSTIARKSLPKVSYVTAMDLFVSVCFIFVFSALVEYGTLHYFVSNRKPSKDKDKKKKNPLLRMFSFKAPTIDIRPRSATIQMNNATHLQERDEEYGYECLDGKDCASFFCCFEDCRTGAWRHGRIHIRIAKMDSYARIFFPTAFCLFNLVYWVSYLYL
Method: as §1, §2

[14] = test system: rats; test: Dose response study of motor coordination in rats (open field behavior); assay type: in vivo
Method: The effect of ketamine oxime disalt on motor coordination in rats was evaluated.

[15] = NMDA-B (NR1/2B), drug concentration 50 μM, current post drug treatment
[16] = NMDA-A (NR1/2A), drug concentration 50 μM, current post drug treatment
[17] = NMDA-D (NR1/2D), drug concentration 50 μM, current post drug treatment
[18] = NMDA-NR1/2B, affinity study, concentrations 0.1 to 200 μM
[19] = NMDA-NR1/2A, affinity study, concentrations 0.1 to 200 μM
[20] = NMDA-NR1/2D, affinity study, concentrations 0.1 to 200 μM

Sequence of NMDA-B (NR1/2B) receptors (Q13224 27-1484, other chains not shown): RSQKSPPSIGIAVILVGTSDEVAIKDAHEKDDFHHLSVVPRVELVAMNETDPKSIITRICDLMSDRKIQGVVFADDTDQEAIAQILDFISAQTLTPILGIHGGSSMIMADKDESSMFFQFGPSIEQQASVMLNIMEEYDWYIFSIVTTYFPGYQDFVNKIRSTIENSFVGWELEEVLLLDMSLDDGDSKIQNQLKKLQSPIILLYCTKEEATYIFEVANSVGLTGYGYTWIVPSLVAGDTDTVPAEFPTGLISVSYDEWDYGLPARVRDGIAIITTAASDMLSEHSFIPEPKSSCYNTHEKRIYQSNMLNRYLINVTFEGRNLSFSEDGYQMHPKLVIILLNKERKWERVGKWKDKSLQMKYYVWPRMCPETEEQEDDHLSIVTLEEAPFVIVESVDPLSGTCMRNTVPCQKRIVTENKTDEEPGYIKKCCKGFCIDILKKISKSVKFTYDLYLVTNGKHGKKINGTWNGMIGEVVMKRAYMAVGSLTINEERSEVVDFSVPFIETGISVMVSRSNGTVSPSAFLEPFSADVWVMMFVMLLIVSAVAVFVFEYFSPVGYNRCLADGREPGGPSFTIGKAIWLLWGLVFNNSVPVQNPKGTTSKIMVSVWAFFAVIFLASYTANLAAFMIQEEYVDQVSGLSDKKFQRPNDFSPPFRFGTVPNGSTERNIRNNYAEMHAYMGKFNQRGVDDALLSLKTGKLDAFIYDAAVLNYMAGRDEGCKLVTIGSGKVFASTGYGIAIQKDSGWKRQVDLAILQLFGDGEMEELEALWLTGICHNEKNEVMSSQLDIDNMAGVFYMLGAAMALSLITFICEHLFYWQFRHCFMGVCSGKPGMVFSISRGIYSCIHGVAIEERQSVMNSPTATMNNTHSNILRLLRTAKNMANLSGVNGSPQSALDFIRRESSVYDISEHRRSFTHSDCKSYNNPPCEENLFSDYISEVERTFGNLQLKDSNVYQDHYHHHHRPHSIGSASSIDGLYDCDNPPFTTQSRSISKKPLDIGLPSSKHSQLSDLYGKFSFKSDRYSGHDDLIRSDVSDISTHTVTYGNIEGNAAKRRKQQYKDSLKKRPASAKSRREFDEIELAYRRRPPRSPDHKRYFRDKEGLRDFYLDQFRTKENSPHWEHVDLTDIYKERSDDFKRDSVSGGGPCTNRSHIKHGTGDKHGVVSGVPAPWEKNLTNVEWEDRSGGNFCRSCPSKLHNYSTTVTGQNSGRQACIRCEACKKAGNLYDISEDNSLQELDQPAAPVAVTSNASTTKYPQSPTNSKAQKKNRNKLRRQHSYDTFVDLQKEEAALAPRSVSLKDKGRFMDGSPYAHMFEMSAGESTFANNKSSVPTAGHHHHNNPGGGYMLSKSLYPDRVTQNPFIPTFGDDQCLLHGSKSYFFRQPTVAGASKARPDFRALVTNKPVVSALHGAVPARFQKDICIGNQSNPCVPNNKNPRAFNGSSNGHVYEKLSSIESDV

Row | SMILES | inhibition at 50 µM [2] | % Recovery [2, 15] | potentiation of GABAA current / response from GABAa receptors, in words [3] | inhibition at 50 µM [4] | inhibition at 50 µM [5] | % Recovery [4, 16] | % Recovery [5, 17] | IAverage = (IGABA + Drug/IGABA) 100 ([12]; Conc. 10 (μM)) | IAverage = (IGABA + Drug/IGABA) 100 ([12]; Conc. 20 (μM)) | IAverage = (IGABA + Drug/IGABA) 100 ([12]; Conc. 50 (μM)) | other results
1 | CC1(N)CCc2ccccc2C1=O (stereo not drawn) [2-amino-2-methyl-1-tetralone] |  |  |  |  |  |  |  |  |  |  | locomotor activity [1]: increased locomotor activity
2 | CNC1(c2ccccc2Cl)CCCC/C1=N\NC(N)=O (stereo not drawn) [Semicarbazone, 2-(2-Chloro-phenyl)-2-methylamino-cyclohexanone O-semicarbazone] | 50.8% | 98.484% | less sensitive than ketamine | 33.6% | 33.3% |  |  |  |  |  | 
3 | CNC1(c2ccccc2Cl)CCCC/C1=N\OC (stereo not drawn) [Methoxime, 2-(2-Chloro-phenyl)-2-methylamino-cyclohexanone O-methyl-oxime] | 75.6% | 71.6417% | did not evoke considerable response | 25.3% | 57.5% | 98.453% | 82.5% |  |  |  | lipophilicity compared to ketamine [6]: increased lipophilicity
4 | CC1(N)C(=O)CCc2ccccc21 (stereo not drawn) [1-amino-1-methyl-2-tetralone] |  |  |  |  |  |  |  |  |  |  | locomotor activity [1]: decreased
5 | C[C@]12N[C@H](Cc3ccccc31)c1ccccc12 [Mk-801] |  |  |  |  |  |  |  |  |  |  | potentiation of GABA / tonic chloride current [7]: less active compared to ketamine
6 | CNC1(c2ccc(OC)cc2Cl)CCCCC1=O (stereo not drawn) [G] |  |  |  |  |  |  |  |  |  |  | functional activity in comparison to ketamine [8]: appreciable activity
7 | CNC1(c2ccccc2Cl)CCCC/C1=N\OCc1ccccc1 (stereo not drawn) [Benzoxime, 2-(2-Chloro-phenyl)-2-methylamino-cyclohexanone O-benzyl-oxime] | 41% | 77.639% | did not evoke considerable response |  | 49.3% |  | 79.452% |  |  |  | lipophilicity compared to ketamine [6]: increased lipophilicity
8 | CNC1(c2ccccc2Cl)CCCC/C1=N\O (stereo not drawn) [Oxime, 2-(2-Chloro-phenyl)-2-methylamino-cyclohexanone oxime] | 83% | 33.9622% | greatly potentiated | 89.2% | 86.7% | 86.1538% | 52.272% |  |  |  | lasting effect following wash of the drug [9]: less than ketamine; IC50 [2]: 1.07 µM; % Recovery [2, 18]: 31%; excitory post synaptic potential relative to ketamine ([3]; GABAa receptors): two times more excitory post synaptic potential than ketamine; IC50 [4]: 5.91 µM; IC50 versus ketamine ([4]; NMDA-A receptors): two fold higher; % Recovery [4, 19]: 74%; lipophilicity compared to ketamine [6]: reduce lipophilicity; % Recovery ([10]; affinity study): 44%; IC50 [10]: 0.747 µM; IC50 [5]: 1.07 µM; % Recovery [5, 20]: 68%
9 | CNC1(c2ccccc2Cl)CCCCC1=O (stereo not drawn) [Ketamine, reference compound] | 80.5% | 34.564% |  | 57.6% | 88.1% | 84.745% | 26.19% | 116.2 n. amp | 157.1 n. amp | 218.3 n. amp | potentiation of GABA / tonic chloride current [7]: potentiated the GABA current; IC50 [2]: 0.82 µM; % Recovery [2, 18]: 19%; IC50 [4]: 2.32 µM; % Recovery [4, 19]: 28%; immobility in tail suspension, overall versus saline [11]: No significant differences; IC50 [5]: 0.76 µM; % Recovery [5, 20]: 24%; potentiation of GABAa current, in words [13]: not able to potentiate any current; IAverage = (IGABA + Drug/IGABA) 100 ([13]; Conc. 20 (μM)): 0 n. amp; IAverage = (IGABA + Drug/IGABA) 100 ([13]; Conc. 50 (μM)): 105 n. amp; IAverage = (IGABA + Drug/IGABA) 100 ([13]; Conc. 100 (μM)): 119 n. amp
10 | CNC1(c2ccccc2Cl)CCCCC1O (stereo not drawn) [Hydroxy, 2-(2-Chloro-phenyl)-2-methylamino-cyclohexanol] |  |  | less sensitivity than ketamine |  |  |  |  | 100 n. amp | 100 n. amp | 123.98 n. amp | IAverage = (IGABA + Drug/IGABA) 100 ([12]; Conc. 100 (μM)): 135.41 n. amp
11 | CNC1(c2ccccc2Cl)CCCC/C1=N\O (stereo not drawn) [Oxime (Disalt), 2-(2-Chloro-phenyl)-2-methylamino-cyclohexanone oxime] |  |  |  |  |  |  |  | 165.4 n. amp | 239 n. amp | 418 n. amp | effect on motor coordination (open field behavior) ([14]; 6 and 12 minute period following injection, dose response): CNS depressant effects; observed behaviour in vivo ([14]; at higher doses): loss of equilibrium, unsteady gait and immobility; righting reflex (an indication of anesthesia) ([14]; at higher doses): without loss of righting reflex; immobility in tail suspension, overall versus saline [11]: No significant differences; immobility in tail suspension, slope analysis [11]: decreased immobility; potentiation of GABAa current, in words ([12]; 20 μM): greater potentiation; increase in potentiation relative to ketamine ([12]; 50 μM): nearly two fold increase; potentiation of GABAa current, in words [13]: greatly potentiated; increase in potentiation relative to ketamine ([13]; 100 μM): nearly two fold increase; IAverage = (IGABA + Drug/IGABA) 100 ([13]; Conc. 20 (μM)): 122.678 n. amp; IAverage = (IGABA + Drug/IGABA) 100 ([13]; Conc. 50 (μM)): 153.41 n. amp; IAverage = (IGABA + Drug/IGABA) 100 ([13]; Conc. 100 (μM)): 214.5 n. amp
12 | c1ccc(C2(N3CCCCC3)CCCCC2)cc1 [PCP, Phencyclidine, reference compound] | 96.8% | 59.677% |  | 88.4% | 87.5% | 93.953% | 66.666% |  |  |  | potentiation of GABA / tonic chloride current [7]: less active compared to ketamine
13 | CNC1(c2ccccc2Cl)CCCC/C1=N\O (stereo not drawn) [Oxime (Monosalt), 2-(2-Chloro-phenyl)-2-methylamino-cyclohexanone oxime] |  |  |  |  |  |  |  | 128.2 n. amp | 193.746 n. amp | 312.04 n. amp | 

From patent US9073819B2, “Compositions, methods of use, and methods of treatment” (UNIVERSITY OF SOUTH FLORIDA, priority 2011, dated 2015)
